The target of this experiment is T1, human APJ receptor (Homo sapiens, UniProt P35414).
T1 construct: expressed in transfected cells; host or cells: HEK293
T1 sequence (P35414 1-380): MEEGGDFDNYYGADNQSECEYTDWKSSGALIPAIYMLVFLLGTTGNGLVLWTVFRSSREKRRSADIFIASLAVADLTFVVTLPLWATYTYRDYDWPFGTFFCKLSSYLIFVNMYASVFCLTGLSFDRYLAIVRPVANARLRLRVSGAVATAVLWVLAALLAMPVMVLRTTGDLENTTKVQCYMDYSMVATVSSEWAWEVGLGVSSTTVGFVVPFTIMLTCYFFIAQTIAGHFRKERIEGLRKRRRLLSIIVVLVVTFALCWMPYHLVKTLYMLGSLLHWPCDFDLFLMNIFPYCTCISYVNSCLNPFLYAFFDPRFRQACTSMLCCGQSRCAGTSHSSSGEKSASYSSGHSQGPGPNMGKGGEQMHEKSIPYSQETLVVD
Put plainly: Intracellular cAMP Accumulation Assay (APJ hcAMP, HTRF). As to conditions: read-out: hAPJ cAMP EC50 Potency range. The class given is cell-based. An outline of the steps: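 Stably transfected HEK293 cells (5,000/well) incubated 30 min at room temperature with serially diluted compound, […] and 2 μM forskolin. cAMP measured by HTRF after 60 min with detection reagents, quantified against a cAMP standard curve; EC50 from variable-slope sigmoidal fit of inhibition of forskolin-stimulated cAMP.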

Where [1] appears, read: human APJ, cAMP accumulation, potency range class.

Read-outs that look alike come from different tables or passages of the source.

Data on 23 compounds can be found in patent US10590113B2, “6-hydroxy-4-oxo-1,4-dihydropyrimidine-5-carboxamides as APJ agonists” (priority 2016, dated 2020).

Regarding `CCc1cccc(CC)c1-n1c(-c2ccn(C3CC3)n2)nc(=O)c(C(=O)N2CC[C@@H](c3ccccc3)C2)c1O` [Example 316, 2-(1-cyclopropyl-1H-pyrazol-3-yl)-1-(2,6-diethylphenyl)-6-hydroxy-5-[(3S)-3-phenylpyrrolidine-1-carbonyl]-1,4-dihydropyrimidin-4-one], the EC50 under setting [1] is 0.01 to 10 nM.

Turning to `CCc1cccc(CC)c1-n1c(-c2ccn(CC(C)C)n2)nc(=O)c(C(=O)N2CC[C@@H](c3ccccc3)C2)c1O` [Example 317, 1-(2,6-diethylphenyl)-6-hydroxy-2-[1-(2-methylpropyl)-1H-pyrazol-3-yl]-5-[(3S)-3-phenylpyrrolidine-1-carbonyl]-1,4-dihydropyrimidin-4-one], the EC50 under setting [1] fell in the range of 10 to 100 nM. On to `CCCc1nc(O)c(C(=O)N2CC[C@H](c3ccccc3)C2)c(=O)n1[C@@H](COC)c1ccccc1` [Example 329, 6-hydroxy-3-[(1R)-2-methoxy-1-phenylethyl]-5-[(3R)-3-phenylpyrrolidine-1-carbonyl]-2-propyl-3,4-dihydropyrimidin-4-one], for which the EC50 under setting [1] fell in the range of 10 to 100 nM. Still for that read-out and setting: the figure for `CCCc1nc(=O)c(C(=O)N2CC[C@@H](c3ccccc3)C2)c(O)n1[C@@H](COC)c1ccccc1` [Example 330, 6-hydroxy-3-[(1R)-2-methoxy-1-phenylethyl]-5-[(3S)-3-phenylpyrrolidine-l-carbonyl]-2-propyl-3,4-dihydropyrimidin-4-one] is 10 to 100 nM; for `CCCCc1nc(=O)c(C(=O)N2CCC(c3ncc(F)cc3F)C2)c(O)n1[C@@H](COC)c1ccccc1` (stereo partly drawn) [Example 349, 2-butyl-5-[3-(3,5-difluoropyridin-2-yl)pyrrolidine-1-carbonyl]-6-hydroxy-3-[(1R)-2-methoxy-1-phenylethyl]-3,4-dihydropyrimidin-4-one] it is 0.01 to 10 nM.

Consider `CCCCc1nc(=O)c(C(=O)N2CCC(c3ncc(Cl)cc3F)C2)c(O)n1[C@@H](COC)c1ccccc1` (stereo partly drawn) [Example 350, 2-butyl-5-[3-(5-chloro-3-fluoropyridin-2-yl)pyrrolidine-1-carbonyl]-6-hydroxy-3-[(1R)-2-methoxy-1-phenylethyl]-3,4-dihydropyrimidin-4-one], for which the EC50 under setting [1] lay within 0.01 to 10 nM. On the same count and under the same terms, the same measure for `CCCCc1nc(=O)c(C(=O)N2CCC(c3ncc(F)cc3F)C2)c(O)n1[C@H](c1cccc(C#N)c1)C1CC1` (stereo partly drawn) [Example 351, 3-[(S)-{2-butyl-5-[3-(3,5-difluoropyridin-2-yl)pyrrolidine-1-carbonyl]-4-hydroxy-6-oxo-1,6-dihydropyrimidin-1-yl}(cyclopropyl)methyl]benzonitrile]: 0.01 to 10 nM. As to `CCCCc1nc(=O)c(C(=O)N2CCN(Cc3cccc(Cl)c3Cl)CC2)c(O)n1-c1c(OC)cccc1OC` [Example 355, 2-butyl-5-(4-(2,3-dichlorobenzyl)piperazine-1-carbonyl)-1-(2,6-dimethoxyphenyl)-6-hydroxypyrimidin-4(1H)-one0.011], the concentration giving a half-maximal response (EC50) under setting [1] is 0.01 to 10 nM. Turning to `CCCCc1nc(=O)c(C(=O)N2CCC(Oc3ccc(Cl)cc3)CC2)c(O)n1-c1c(OC)cccc1OC` [Example 373, 2-butyl-5-(4-(4-chlorophenoxy)piperidine-1-carbonyl)-1-(2,6-dimethoxyphenyl)-6-hydroxypyrimidin-4(1H)-one], the EC50 lay in the range of 0.01 to 10 nM. Regarding `CCOCc1nc(=O)c(C(=O)N2CCC(Cc3ccc(F)cc3)CC2)c(O)n1-c1c(OC)cccc1OC` [Example 374, 1-(2,6-dimethoxyphenyl)-2-(ethoxymethyl)-5-(4-(4-fluorobenzyl)piperidine-1-carbonyl)-6-hydroxypyrimidin-4(1H)-one], the EC50 lay in the range of 0.01 to 10 nM. As to `CCOCc1nc(=O)c(C(=O)N2CCC(Cc3ccc(Cl)cc3)CC2)c(O)n1-c1c(OC)cccc1OC` [Example 375, 5-(4-(4-chlorobenzyl)piperidine-1-carbonyl)-1-(2,6-dimethoxyphenyl)-2-(ethoxymethyl)-6-hydroxypyrimidin-4(1H)-one], the concentration giving a half-maximal response (EC50) is 0.01 to 10 nM. In the case of `CCOCc1nc(=O)c(C(=O)N2CC[C@H](OCc3ccccc3)C2)c(O)n1-c1c(OC)cccc1OC` [Example 376, (S)-5-(3-(benzyloxy)pyrrolidine-1-carbonyl)-1-(2,6-dimethoxyphenyl)-2-(ethoxymethyl)-6-hydroxypyrimidin-4(1H)-one], the concentration for a half-maximal effect (EC50) is 0.01 to 10 nM. On the same count and under the same terms, the figure for `CCOCc1nc(=O)c(C(=O)N2CCC(Oc3ccc(Cl)cc3)CC2)c(O)n1-c1c(OC)cccc1OC` [Example 377, 5-(4-(4-chlorophenoxy)piperidine-1-carbonyl)-1-(2,6-dimethoxyphenyl)-2-(ethoxymethyl)-6-hydroxypyrimidin-4(1H)-one] is 0.01 to 10 nM; for `CCOCc1nc(=O)c(C(=O)N2CCC(Oc3cc(F)ccc3Cl)CC2)c(O)n1-c1c(OC)cccc1OC` [Example 378, 5-(4-(2-chloro-5-fluorophenoxy)piperidine-1-carbonyl)-1-(2,6-dimethoxyphenyl)-2-(ethoxymethyl)-6-hydroxypyrimidin-4(1H)-one] it is 0.01 to 10 nM. `CCOCc1nc(=O)c(C(=O)N2CCC(c3ccccc3F)CC2)c(O)n1-c1c(OC)cccc1OC` [Example 379, 1-(2,6-dimethoxyphenyl)-2-(ethoxymethyl)-5-(4-(2-fluorophenyl)piperidine-1-carbonyl)-6-hydroxypyrimidin-4(1H)-one]: the half-maximal effective concentration (EC50) was in the range of 0.01 to 10 nM.

Consider `CCCCc1nc(=O)c(C(=O)N2CCC(Cc3ccc(C(F)(F)F)cc3)CC2)c(O)n1-c1c(OC)cccc1OC` [Example 380, 2-butyl-1-(2,6-dimethoxyphenyl)-6-hydroxy-5-(4-(4-(trifluoromethyl)benzyl)piperidine-1-carbonyl)pyrimidin-4(1H)-one], for which the EC50 is 0.01 to 10 nM. On to `CCCCc1nc(=O)c(C(=O)N2CCC(Oc3ccc(C(C)(C)C)cc3)CC2)c(O)n1-c1c(OC)cccc1OC` [Example 381, 2-butyl-5-(4-(4-(tert-butyl)phenoxy)piperidine-1-carbonyl)-1-(2,6-dimethoxyphenyl)-6-hydroxypyrimidin-4(1H)-one], for which the EC50 was in the range of 10 to 100 nM. Consider `CCCCc1nc(=O)c(C(=O)N2CCC(Oc3ccccc3Cl)CC2)c(O)n1-c1c(OC)cccc1OC` [Example 382, 2-butyl-5-(4-(2-chlorophenoxy)piperidine-1-carbonyl)-1-(2,6-dimethoxyphenyl)-6-hydroxypyrimidin-4(1H)-one], for which the 50% effective concentration (EC50) is 0.01 to 10 nM. `CCCCc1nc(=O)c(C(=O)N2CCC(Oc3cccc(F)c3Cl)CC2)c(O)n1-c1c(OC)cccc1OC` [Example 383, 2-butyl-5-(4-(2-chloro-3-fluorophenoxy)piperidine-1-carbonyl)-1-(2,6-dimethoxyphenyl)-6-hydroxypyrimidin-4(1H)-one]: the EC50 fell in the range of 0.01 to 10 nM.

On to `CCCCc1nc(=O)c(C(=O)N2CCC(Oc3cc(F)ccc3Cl)CC2)c(O)n1-c1c(OC)cccc1OC` [Example 385, 2-butyl-5-(4-(2-chloro-5-fluorophenoxy)piperidine-1-carbonyl)-1-(2,6-dimethoxyphenyl)-6-hydroxypyrimidin-4(1H)-one], for which the EC50 was 0.01 to 10 nM.

For the compound `CCCCc1nc(=O)c(C(=O)N2CCC(Oc3cc(F)cc(F)c3Cl)CC2)c(O)n1-c1c(OC)cccc1OC` [Example 386, 2-butyl-5-(4-(2-chloro-3,5-difluorophenoxy)piperidine-1-carbonyl)-1-(2,6-dimethoxyphenyl)-6-hydroxypyrimidin-4(1H)-one], the concentration giving a half-maximal response (EC50) was 0.01 to 10 nM.

With `CCCCc1nc(=O)c(C(=O)N2CCC(Oc3cccc(F)c3F)CC2)c(O)n1-c1c(OC)cccc1OC` [Example 387, 2-butyl-5-(4-(2,3-difluorophenoxy)piperidine-1-carbonyl)-1-(2,6-dimethoxyphenyl)-6-hydroxypyrimidin-4(1H)-one], the 50% effective concentration (EC50) fell in the range of 0.01 to 10 nM. On the same count and under the same terms, the same measure for `CCCCc1nc(=O)c(C(=O)N2CCN(Cc3cccc(F)c3F)CC2)c(O)n1-c1c(OC)cccc1OC` [Example 388, 2-butyl-5-(4-(2,3-difluorobenzyl)piperazine-1-carbonyl)-1-(2,6-dimethoxyphenyl)-6-hydroxypyrimidin-4(1H)-one]: 0.01 to 10 nM.
